According to patent US20160108431A1, “PREVENTION AND TREATMENT OF ATRIAL FIBRILLATION” (ISIS INNOVATION LIMITED, priority 2013, published 2016):
“Also recorded” adds a separate entry of the source. Where a SMILES comes first, the peptide text is derived from it. The star is where a group is joined. Cbz = O=C(OCc1ccccc1)*

How the values were obtained:
human RA myocytes = experiment: Action potential duration (APD) and APD rate adaptation in isolated human right atrial myocytes; assay type: cell-based
Source text: All abbreviations are as defined in FIG. 1.
9b. […] Representative AP traces in RA myocytes from patients in SR exposed to 2 doses of 4-AP in the presence or absence of nNOS inhibition with SMTC.
A shorter APD leads to reduced atrial refractoriness and promote AF sustainability. […] These findings indicate that loss of myocardial nNOS signalling is sufficient to produce an atrial electrical substrate that increases both the inducibility and maintenance of AF.

nNOS protein [1] = experiment: nNOS protein in human atrial tissue in AF after inhibition of the proteosomal system or autophagy; assay type: cell-based; details: human RA, MG132 5 μmol/L, bafilomycin 25 nmol/L
Method: In the presence of AF, ubiquitination of nNOS protein is increased in human atrial tissue as shown by immunoprecipitation. Protein load of AF samples was increased to match the nNOS content to that seen in SR; n=6 (a). […] All abbreviations are as defined in FIG. 1.
In the skeletal muscle, nNOS protein stability is determined by the enzyme's anchoring to the dystrophin-syntrophin complex. We found a reduction in dystrophin (FIG. 4c, 4d, 4f) and dystrophin-associated proteins (e.g., caveolin-3 and α1-syntrophin, 4c, 4e), and a disruption of the dystrophin-nNOS complex in AF (FIG. 4a, 4b). In humans, atrial nNOS and dystrophin were strongly correlated (FIG. 4g), in keeping with the notion that disruption of the dystrophin-syntrophin complex promotes ubiquitin-dependent nNOS degradation in AF.

nNOS mRNA [2] = experiment: nNOS mRNA (gene expression) in transfected human atrial myocytes; assay type: cell-based
Source text: (§1) By contrast, treatment with miR31 mimic has no effect on the DYS mRNA in either SR (n=12) or AF (n=10). *P<0.05, **P<0.01 ***P<0.001 vs controls in SR and #P<0.05, ##P[…], ###P<0.001 vs negative control (NC) using 1-way ANOVA with Bonferroni correction. Dystrophin and nNOS gene expression were normalized to GAPDH.
(§2) 12g-m. […] By contrast, miR31 mimic has no effect on the decay of the DYS mRNA (h).

DYS mRNA [3] = experiment: DYS mRNA (gene expression) in transfected human atrial myocytes; assay type: cell-based; details: for DYS mRNA (expression): SR myocytes, mimic 10 nM, 72 hours (FIG. 10)
Source text: as §1, §2

nNOS protein [4] = experiment: nNOS protein content (immunoblot) in transfected human atrial myocytes; assay type: cell-based
Source text: (§3) RQ—relative quantification, DYS—dystrophin; all other abbreviations are as defined in FIG. 1.
as §1, §2

dystrophin (DYS) protein = experiment: Dystrophin protein content (immunoblot) in transfected human atrial myocytes; assay type: cell-based
[5] = tested on: nNOS mRNA on the RISC complex; experiment: Ribonucleoprotein immunoprecipitation with Ago2 (RISC), nNOS mRNA; assay type: cell-based, human; details: RA myocytes from AF patients; TSB 20 nM, 48-72 hours; normalized to miR31 in RISC
Method: 12a-b. (a) Immunoprecipitation of the RNA-induced silencing effector complex (RISC) protein, Argonaut 2 (Ago2) in RAA myocytes isolated from patients with AF transiently (48-72 hours) transfected with 20 nM of an locked nucleic acids (LNA)-based miR31 target site blocker (TSB, Exiqon) or with corresponding scrambled control (scr, 20 nM, Exiqon). Further details on the sequence of the TSB and scr control, also see FIG. 13). Molecular weight is shown in kilodalton (kDa); Rb IgG—rabbit immunoglobulin G (as negative control); IP—immunoprecipitation, IB—immunoblotting. (b) miR31 expression is unchanged in Ago2 immunoprecipitates from RAA human myocytes.
12c-f. (c) Sequence of the mature human miR31 (hsa-miR31), 23-nucleotide region of the human DYS-3′UTR, the miR31 hairpin inhibitor (anti-miR31, miRIDIAN, Dharmacon) and the 18-nucleotide-long locked nucleic acids (LNA)-based Target Site Blocker (TSB) covering the miR31-binding site on the DYS-3′UTR (TSB_DYS). (d) Sequences of the mature hsa-miR-31, 23-nucleotide region of the human nNOS-3′UTR, the anti-miR31 (miRIDIAN, Dharmacon) and the 18-nucleotide-long TSB covering the miR31-binding site on the nNOS 3′UTR (TSB_nNOS). The miR-31 seed sequence is in grey. […]
(§4) The corresponding mRNA stability was assessed in the presence of a miR-31 mimic (10 nM) in SR myocytes treated with the transcription inhibitor, actinomycin D (5 μg/ml).

DYS 3′UTR = experiment: GFP reporter assay in HEK293 cells, DYS 3′UTR construct; assay type: cell-based, human; details: HEK293, co-transfected 48 hours
Method: 11c. HEK293 cells were co-transfected (48 hours) with reporter constructs containing the DYS 3′UTR region containing the mir31 binding putative site. […] Reporter assays were performed in triplicates and are representative of at least 3 independent experiments. ###P<0.001 vs vehicle, repeated-measure ANOVA with Bonferroni correction.

nNOS mRNA [6] = experiment: nNOS mRNA stability in the presence of actinomycin D; assay type: cell-based, human; details: SR myocytes; actinomycin D 5 μg/ml; mimic 10 nM
Method: as §2, §4

miR-31 = miR-31 expression in transfected isolated human atrial myocytes; assay type: cell-based; details: for miR31 levels: RAA myocytes; for miR-31 expression: 20 nM, 48-72 hours
Source text: as §3
8a. […] Data are expressed as fold change to the controls in SR.
as §1
We hypothesised that a microRNA-mediated translational repression of dystrophin in AF may account for the loss of myocardial nNOS and constitute a novel mechanism underlying AF-induced electrical remodelling.

human nNOS 3′UTR = experiment: GFP reporter assay in HEK293 cells, nNOS 3′UTR constructs; assay type: cell-based; details: HEK293, co-transfected 48 hours, mimic 10 nM
Method: 11a. Predicted conserved (site 1) and poorly conserved (sites 2, 3, 4 and 5) miR31-5p binding sites on the human nNOS 3′UTR.
11b. HEK293 cells were co-transfected (48 hours) with reporter constructs containing 2 fragments (˜500 bp) of the nNOS 3′UTR region containing the mir31 binding putative sites (Part1, site 1 & 2 and Part2, sites 3, 4 & 5) and a miR31 mimic (10 nM, miRIDIAN, Dharmacon). […] Further analysis of Part 2, identified site 5 as the functional mir31 site on the nNOS 3′ UTR.

DYS mRNA [7] = experiment: DYS mRNA stability in the presence of actinomycin D; assay type: cell-based, human; details: SR myocytes; actinomycin D 5 μg/ml; mimic 10 nM; listed as miR31 mimic
Method: as §2, §4

[8] = myocytes from patients with AF, 20 nM, 48-72 hours
[9] = myocytes from patients with AF, 20 nM, 48-72 hours, listed as nNOS-TSB
[10] = SR myocytes, mimic 10 nM, 72 hours
[11] = SR myocytes, mimic 10 nM, 72 hours (FIG. 10), listed as miR31 mimic
[12] = SR myocytes, mimic 10 nM, 72 hours (FIG. 10), listed as miRIDIAN miR-31 mimic
[13] = myocytes from patients in SR, 20 nM, 48-72 hours

Molecule: Nc1ccncc1 [4-AP]
- APD (human RA myocytes; RA myocytes from patients in SR, 2 doses of 4-AP (100 and 500)): prolong APD
- difference in APD induced by SMTC (human RA myocytes; RA myocytes from patients in SR, 4-AP 100 and 500, with or without SMTC): abolish the difference in APD induced by SMTC
- APD rate dependent adaptation (human RA myocytes; human RA myocytes, 4-AP): restores the APD rate dependent adaptation

Molecule: CC(C)C[C@@H](C=O)NC(=O)[C@H](CC(C)C)NC(=O)[C@H](CC(C)C)NC(=O)OCc1ccccc1 [MG132] (Cbz-Leu-Leu-Leu-aldehyde)
- nNOS protein content (nNOS protein [1]): partially restores nNOS protein; also recorded: partially restored nNOS content

Molecule: CO/C1=C\C(C)=C\[C@@H](C)[C@@H](O)[C@@H](C)C/C(C)=C/C=C/[C@H](OC)[C@@H]([C@@H](C)[C@@H](O)[C@H](C)[C@@]2(O)C[C@@H](O)[C@H](C)[C@@H](C(C)C)O2)OC1=O [bafilomycin A1]
- nNOS protein content (nNOS protein [1]; listed as bafilomycin): had no effect

Molecule: TSB_nNOS: 18-nucleotide-long TSB covering the miR31-binding site on the nNOS 3′UTR (LNA-based, Exiqon) (DNA TGGCAAGAATGAAAAGGC; LNA-based target site blocker, LNA pattern not given here)
- nNOS mRNA (gene expression) (nNOS mRNA [2]; [8]): increased nNOS mRNA
- nNOS mRNA (gene expression) (nNOS mRNA [2]; [9]): significantly increased
- DYS mRNA (DYS mRNA [3]; [8]): without affecting
- nNOS protein content (nNOS protein [4]; [8]): partially recovered nNOS protein
- nNOS protein content (nNOS protein [4]; [9]): recovered nNOS
- dystrophin (DYS) protein content (dystrophin (DYS) protein; [8]): without affecting
- loading of nNOS mRNA on the RISC complex (Ago2 immunoprecipitation) [5]: selectively prevented loading; also recorded: reduction

Molecule: miR-31 mimic: miRIDIAN miR-31 mimic (Dharmacon) (AGGCAAGATGCTGGCATAGCT; listed as DNA, chemistry not given here)
- GFP fluorescence, wild type (WT) DYS 3′UTR construct (DYS 3′UTR): reduction in miR31-mediated GFP fluorescence
- reduction in GFP fluorescence, mutated (Mut) DYS 3′UTR constructs lacking miR31 binding site (DYS 3′UTR): abolished
- APD (human RA myocytes; [10]): shortened APD
- APD rate-dependent adaptation (human RA myocytes; [10]): abolished the APD rate-dependent adaptation
- decay of nNOS mRNA (nNOS mRNA [6]): accelerated the decay of nNOS mRNA
- nNOS gene expression (nNOS mRNA [2]; AF myocytes, mimic (FIG. 10)): reduces
- nNOS mRNA (gene expression) (nNOS mRNA [2]; [11]): reduces
- nNOS mRNA (gene expression) (nNOS mRNA [2]; [12]): reduced
- DYS mRNA (DYS mRNA [3]; AF myocytes, mimic (FIG. 10)): has no effect
- DYS mRNA (expression) (DYS mRNA [3]; listed as miR31 mimic): has no effect
- DYS mRNA (expression) (DYS mRNA [3]; listed as miRIDIAN miR-31 mimic): without affecting
- nNOS protein (nNOS protein [4]; AF myocytes, mimic (FIG. 10)): reduces
- nNOS protein content (nNOS protein [4]; [11]): reduces
- nNOS protein content (nNOS protein [4]; [12]): reduced
- nNOS protein content (nNOS protein [4]; [13]): dramatically reduced
- nNOS protein content (nNOS protein [4]; [8]): dramatically reduced
- miR31 levels (miR-31; AF, mimic (FIG. 10)): increases mir31 levels
- miR31 levels (miR-31; SR, mimic 10 nM, 72 hours (FIG. 10)): increases mir31 levels
- miR-31 expression (miR-31; myocytes from patients in SR): upregulation of miR-31
- miR-31 expression (miR-31; myocytes from patients with AF): upregulation of miR-31
- dystrophin protein (dystrophin (DYS) protein; AF myocytes, mimic (FIG. 10)): reduces
- dystrophin (DYS) protein content (dystrophin (DYS) protein; [11]): reduces
- dystrophin (DYS) protein content (dystrophin (DYS) protein; [12]): reduced
- dystrophin (DYS) protein content (dystrophin (DYS) protein; [13]): dramatically reduced
- dystrophin (DYS) protein content (dystrophin (DYS) protein; [8]): dramatically reduced
- GFP fluorescence, wild type (WT) Part 2 nNOS 3′UTR construct (human nNOS 3′UTR): reduction in miR31-mediated GFP fluorescence
- reduction in GFP fluorescence, mutated (Mut) nNOS 3′UTR constructs lacking miR31 binding site (human nNOS 3′UTR): abolished
- decay of DYS mRNA (DYS mRNA [7]): has no effect
